Entries after “also recorded” stand apart in the source; their conditions may differ. Where two headings read alike, the source gives them in different places.
Legend:
[1] = tested on: PTEN/AKT pathway; assay: PTEN/AKT pathway expression in THP1 cells (Western blot); type: cell-based
Excerpt: To further evaluate the specificity of the SALL4/PTEN pathway, next investigated was whether wild type peptide treatment could affect the expression of PTEN and its downstream target, phosphorylated AKT (pAKT).

[2] = tested on: primary human AML cells; assay: Viability / cell death of primary AML cells in culture (Annexin V/PI flow cytometry); type: cell-based; conditions: for cell death rate: 96 h after first treatment, Chariot (Example 1)
Experimental: Whether a therapeutic effect could be achieved by using this wt peptide on primary AML samples was then tested. Ninety-six hours after the first treatment of peptides (wt, Mut, or Scr) or TSA in the primary AML cells collected from a patient, the remaining alive cells were measured by FACS analysis using Annexin V/PI staining. During the treatment the wt and control peptides (Mut or Scr) were re-introduced twice at the 24-hour and the 48-hour time points along with the Chariot (Active Motif) transfection agent. A significant effect of the wt peptide on the cell viability of primary AML cells was observed. While there was a 56% cell death rate with wt peptide treatment at the end of the fourth day, the cell death rate was only 35% in the non-treated or treated with the control peptide, and the cell death rate was 44% in cells treated with TSA (FIG. 5).
Three frozen primary AML patient samples were used for this study, and were obtained from Brigham and Women's Hospital at Boston, Mass., USA, under approved IRB protocol (No. 2011-P-000096/1). Culture conditions were adapted from a published protocol 28-31. In brief, the frozen AML samples were incubated in RPMI1640 medium without serum for 1 to 3 h after thawing and DNA fragments from dead cells were removed by washing. After three washes with the medium, 1×10^6 cells per well of 12-well plate were maintained in 1 ml of serum-free medium (StemSpan-H3000, Catalogue #09800, StemCell Technologies) supplied with StemSpan CC 100 cytokine cocktail (Catalogue #02690, StemCell Technologies) that supports 40-50% viability at 72 hours postthaw culturing based on our experience. These cells were then used for the down-regulation of SALL4 (see details below) and peptide treatment experiments.
SALL4 is critical for leukemic cell survival in the AML cell line NB4 (Yang, et al., Blood, 112:805-813 (2008)). Asked herein was whether this is also the case for primary human AML samples. Three SALL4/PTEN-expressing AML samples were selected for experiments in which cells were first tested under culture conditions that maintain/promote viability of AML cells 28-31. The SALL4-specific shRNA that has been validated in previous studies (Yang et al., PLoS One, 5:e10766 (2010); Yang, et al., Blood, 112:805-813 (2008); Yang et al., PNAS USA, 104:10494-10499 (2007)) was utilized in these AML patient samples (FIG. 11A). 48 hours after transduction, the viability of cells was determined by flow cytometry after staining with Annexin V and propidium iodide (PI). Live cells are Annexin V negative and PI negative, the double negative population. […] Furthermore, in a xenotransplant model, increased survival of leukemic cell recipient NOD/SCID/IL2rγ-null (NSG) mice following knocking down SALL4 expression in the primary AML samples was observed (FIG. 11C). Fatal AML with onset ranging from one to three months developed in all recipients receiving AML cells transduced with a scrambled control shRNA (n=7), while only 2 out of 6 mice receiving SALL4 shRNA-treated primary AML developed leukemia. While the median survival of scrambled shRNA control recipient mice (n=7) was 33 days, the median survival of SALL4 shRNA recipient mice (n=6) was 109 days (P=0.01). The transplanted leukemia disease was characterized by immature blasts with human CD45 expression in peripheral blood, bone marrow, and tissues such as liver and spleen (FIG. 11D to 11F).
Next tested was whether a therapeutic effect could be achieved by using the wild type peptide in primary human AML samples. The same SALL4/PTEN expressing primary AML samples were selected for experiments under the same culture conditions as mentioned above. Leukemic cells were subjected to three treatment regimes: peptide (wild type or scrambled), peptide plus PTEN inhibitor, or HDAC inhibitor (TSA). To assist peptide delivery into cells, a carrier agent, Pep-1 was used for all the experiments, and control treated cells were given pep-1 alone (mock). […]

[3] = tested on: SNU-387 cells; assay: Cell viability assay (MTT/MTS); type: cell-based, human; conditions: for cell viability / number of viable cells: SNU-387 (low/no SALL4), 72 h
Experimental: Cell viability was determined 72 hours after peptide treatments. Absorbance at 490 nm is directly correlated to cell viability. Wild type functional SALL4 peptide (wt), mutant non-functional SALL4 peptide (Mut.), trichostatin A (TSA), scrambled control peptide (Scr.), wild type peptide+PTEN inhibitor SF1670 (wt+Inh.) were given to the cells at the indicated concentration. PTEN inhibitor concentration was 400 nM. (31C, 31D) Western blot analyses of the effects of peptides on PTEN, AKT, and pAKT expression on SNU-398 (31C) and SNU-387 (31D) cells 72 hours following peptide treatments. 20 μM of wt or Scr. peptide or 100 nM of TSA was used. PTEN inhibitor concentration was 400 nM. (31E) Representative images show NOD/SCID mice transplanted with Scr peptide- and wt peptide-treated SNU-398 cells (left) and the dissected subcutaneous tumors (right). Arrow indicates subcutaneous tumor. (31F) Growth curve of subcutaneous tumors (left panel) and tumor weight of tumors dissected at day 26 post-transplantation (right panel). Results are mean±s.d. n=5; * P<0.05. (31G) Representative images show NOD/SCID mice transplanted with 3 million SNU-398 cells at the left flank and treated intraperitoneally for five consecutive days with 56 mg/kg body weight TAT-Mut. peptide or 60 mg/kg body weight wt peptide (top panel) and the dissected subcutaneous tumors (bottom). (31H) Tumor weight of tumors dissected at day 18 post-transplantation and post-treatment of mice treated intraperitoneally with TAT fusion peptides as described in 5 g. Results are mean±s.d. n=5; * P<0.05.
Cell viability assay (MTT) (Invitrogen) was performed according to the manufacturer's instructions. Briefly—10000 cells were seeded in 100 ul medium in 96 well plates. The next day cells were treated as indicated on the figures. At the designated time after the treatment 20 ul of 5 mg/ml MTT solution was added to each well. After 3.5 h incubation at 37 C the medium was removed and the reaction was terminated with a solution of 4 mM HCl, 0.1% Nondet P-40 (NP40) all in isopropanol in dark on orbital shaker for […]. at room temperature. The absorbance was read at 590 nm with a reference filter of 620 nm in Spectromax M3 (ABI) spectrophotometer.
7000 cells were seeded in each wells of a microtiter plate in 100 μL of complete medium. Cells from each treatment were seeded in duplicate. Controls using the same medium without cells were set up in parallel. At various time points, 317 μg/mL of 3-(4,5-dimethylthiazol-2-yl)-5-(3-carboxymethoxyphenyl)-2-(4-sulfophenyl)-2H-tetrazolium (CellTiter96® AQueous One Solution Cell Proliferation Assay, Promega) was added to each well. After four hours incubation of the tetrazolium salt, absorbance at 490 nm was read by a microplate reader.

Compound | PTEN expression [1] | pAKT on Ser 473 [1] | cell death rate ([2]; primary AML, Annexin V/PI) | cell viability / number of viable cells [3] | also measured
CC(/C=C/C(=O)NO)=C\[C@@H](C)C(=O)c1ccc(N(C)C)cc1 [TSA, Trichostatin A, reference compound] | increased PTEN expression | significantly reduced | 44% | – | cell viability ([2]; primary AML, fourth day, Pep-1 carrier, untreated set as 100 (Example 2)): 54.7%
CTATTTAGCCAAAGGCAAA (short hairpin RNA, chemistry and delivery not given here, further chemistry not given here) [E5 shRNA] | – | – | – | – | cell viability upon SALL4 knockdown ([3]; SNU-387, MTS): number of viable cells was similar
H-MSRRKQAKPQHI-OH [wt peptide, MSRRKQAKPQHI] | increased PTEN expression | significantly reduced | 56% | had no effects; also recorded: did not affect the cell viability | cell viability ([2]; human, 96 h): 55.3%; cell viability / number of viable cells ([3]; listed as SALL4 peptide): had no effect; cell viability / number of viable cells ([3]; listed as wt): no change in cell viability
Scr peptide: same 12 amino acids as the wt peptide, but in a scrambled sequence; negative control (SRMRQKIHPKIQ) [reference compound] | No effect | No effect | the same value as the untreated | no change in cell viability | cell viability [2]: over 97%
GATGCCTTGAAACAAGCCAAGCTACCTCA (chemistry not given here) [compound 7412, SALL4 shRNA used in primary AML cells] | – | – | – | – | viability after SALL4 knock-down [2]: 80.9%; increase in cell apoptosis and cell death ([2]; primary AML, Annexin V/PI, after SALL4 knock-down): 2 fold

— US9365851B2, “Spalt-like transcription factor 4 (SALL4) and uses thereof” (National University of Singapore, priority 2011, dated 2016)
